{"source": "patent US6034053A", "about": "“EGF-isoflavone conjugates for the prevention of restenosis” (Wayne Hughes Institute, priority 1998, dated 2000)", "system": "vascular injury-induced neointimal hyperplasia", "test": "Murine restenosis model: photoactivated rose bengal vascular injury of the femoral artery, histomorphometric analysis", "type": "in vivo, C57B1/6 mice", "details": "for Stenosis Index (Mean ± SE), neointima/media ratio in areas of maximum neointimal hyperplasia, 4 weeks: 4 weeks after injury, i.p., EGF-Gen 0.1 mg/kg/dose twice daily for 28 days, Gen or quinazolines 2 mg/kg/dose once per day in 10% DMSO", "description": "Three to four week old C57 B1/6 male mice (Taconic, Germantown, N.Y.) were housed in micro-isolator cages on a 12-hour day/night cycle and kept for 2 weeks on the Paigen's cocoa butter diet of 15.8% fat, 1.25% cholesterol and 0.5% sodium cholate (Harlan Teklad, Madison, Wis., U.S.A.) to induce high plasma cholesterol levels similar to those of patients with lipid disorders.\nMice were injected with 300 microliters of a 3 mg/ml photoactivated rose bengal solution (Aldrich, Milwaukee, Wis.) in sterile PBS via the tail vein and anesthetized with ketamine/xylazine solution (100 mg ketamine/kg and 5 […]). Photoactivation of rose bengal using percutaneous irradiation with a green light source (300 Watt Xenon arced lamp equipped with a 550 nanometer broad band interference filter, Oriel Scientific, Stratford, Conn.) was performed on the shaved left leg by placing a 3.2 mm glass fiber optic light guide directly into the left femoral vein/artery for 10 minutes. The unirradiated right femoral artery served as an internal control.\nFollowing irradiation the mice were treated for either 14 days or 28 days with intraperitoneal injections of (1) EGF-Gen conjugate or unconjugated EGF (modified EGF not conjugated to genistein) at a dose level of 0. I mg/kg/dose once in the morning and once in the evening; or (2) 2 mg/kg/dose of unconjugated genistein or derivatives of 6,7-dimethoxyquinizalone dissolved in 10% DMSO once per day; or (3) with PBS.\nAt the times indicated, the animals were euthanized with ketamine/xylazine and perfused with PBS followed by 4% phosphate buffered formalin. PBS and formalin were pumped through the left ventricle of the heart and allowed to exit through a 3 mm incision through the interior wall of the right ventricle. […] Serial sections were examined for areas of maximum neointimal hyperplasia for which the ratios of neointima/media (stenosis index) were determined. […]\nAll numeric data are shown as mean±SEM. […] Cumulative percentage plots were analyzed using Wilcoxon statistics by Statview, Abacus Concepts, Inc., Berkeley, Calif. […]", "data": [{"smiles": "O=c1c(-c2ccc(O)cc2)coc2cc(O)cc(O)c12", "note": "[Gen, 5,7,4'-trihydroxyisoflavone, reference compound]", "values": [{"measurement": "Stenosis Index (Mean ± SE), neointima/media ratio in areas of maximum neointimal hyperplasia, 4 weeks", "value": "1.03 ± 0.18"}, {"measurement": "Stenosis Index (Mean ± SE), neointima/media ratio in areas of maximum neointimal hyperplasia, 4 weeks", "setting": "listed as unconjugated Gen", "value": "1.03±0.18"}, {"measurement": "Effect on neointimal hyperplasia / neointima formation (in words)", "setting": "injured femoral arteries, EGF-Gen at less than 5% of the highest nontoxic dose", "value": "ineffective"}]}]}
